Measurements taken from US12662676B2, “Aptamer nucleic acid molecule, and complex and application thereof” (EAST CHINA UNIVERSITY OF SCIENCE AND TECHNOLOGY, priority 2019, dated 2026).

Assay: Fluorescence activation of III-3 fluorophore by Pepper aptamers and mutants
Type: biochemical
Conditions: for Activation folds: 1 μM III-3 with 5 μM RNA; for fluorescence activation of III-3 by base-modified Pepper: deoxyribonucleotide or 2′-F modification in stem-loop region
Description: Preparation of Pepper or Pepper mutant aptamer according to the commonly used experimental method (1). 5 μM aptamer and 1 μM fluorophore were incubated in the detection buffer (40 mM HEPES, pH 7.4, 125 mM KCl, 5 mM MgCl2, 5% DMSO). The maximal excitation and emission peaks of the aptamer-fluorophore complexes were determined using a Synergy Neo2 multifunctional microplate reader. The fluorescence intensities of the aptamer-fluorophore complexes at the maximal excitation and emission peaks were determined using a Synergy Neo2 multifunctional microplate reader. The control sample (1 μM fluorophore without aptamer) was also measured under the same conditions. Then the ratios of fluorescence intensity were calculated. For example, the fluorescence maximal excitation and emission peaks of the complex of 5 μM F30-Pepper-2 and 1 μM III-3 fluorophore are 485 nm and 530 nm, respectively. The fluorescence intensity of the complex at 485±10 nm excitation and 530 nm±10 nm emission was 36,000, the fluorescence intensity of the control sample (1 μM III-3 fluorophore only) under the same detection conditions was 10. Thus, the activation ratio of F30-Pepper-2 aptamer on III-3 fluorophore was 3,600-fold.
In order to detect the fluorescence activation of III-3 fluorophore by different Pepper mutant, the Pepper-1 sequence in F30-Pepper-1 was mutated according to Table 1. […] 1 μM III-3 was incubated with […] RNA and their fluorescence activation folds were determined according to the commonly used experimental method (5). […] In summary, many Pepper mutants containing single and multiple mutants still retain the ability to activate the fluorescence of III-3 fluorophore.
In order to detect the activation of III-3 by modified Pepper, base-modified Pepper-3 was synthesized (SEQ ID NO: 6, the underlined nucleotides in […] GGCC contain deoxyribonucleotide bases) and Pepper-4 (SEQ ID NO: 7, the underlined nucleotides in […] GGGCC contain 2′-F modification) (synthesized by Shanghai GenePharma Co., Ltd), which contain deoxyribonucleotides replacement (shaded bases in FIG. 5A) or 2′-F modification (shaded bases in FIG. 5B) in the stem-loop region of Pepper. Detection of the fluorescence activation of III-3 fluorophore by these modified Peppers was carried out according to the commonly used experimental method (5).

[1] = Activation of III-3 by Pepper mutants with single mutation
[2] = Activation of III-3 by Pepper mutants with multiple mutations

Row | Substance | Activation folds [1] [folds] | other results
1 | G18U: F30-Pepper-1 mutant aptamer (NCCAAUCGUGGCGUGUCUNNNACUGGCGCCGN; RNA, backbone, methylation of C and the base at N not given here; Pepper aptamer mutant embedded in F30 scaffold) [Compound G18U] | 1024 | 
2 | C2A/G31U/G10C/C30G: F30-Pepper-1 mutant aptamer (NACAAUCGUCGCGUGUCGNNNACUGGCGCGUN; Pepper mutant embedded in F30 scaffold, chemistry not given here, further chemistry not given here) |  | Activation folds [2]: 3475 folds
3 | C2U/G31A/G10U/C30A: F30-Pepper-1 mutant aptamer (NUCAAUCGUUGCGUGUCGNNNACUGGCGCAAN; Pepper mutant embedded in F30 scaffold, chemistry not given here, further chemistry not given here) |  | Activation folds [2]: 2583 folds
4 | C2U/G31A: F30-Pepper-1 mutant aptamer (NUCAAUCGUGGCGUGUCGNNNACUGGCGCCAN; Pepper mutant embedded in F30 scaffold, chemistry not given here, further chemistry not given here) |  | Activation folds [2]: 3256 folds
5 | Pepper-3: base-modified Pepper, SEQ ID NO: 6, deoxyribonucleotides replacement in the stem-loop region (GGCCCCCAAUCGUGGCGUGUCGGCCUGCUUCGGCAGGCACUGGCGCCGGGGCC; deoxyribonucleotides at some stem-loop positions, underlined positions not recoverable, further chemistry not given here) |  | fluorescence activation of III-3 by base-modified Pepper: significantly activate the fluorescence of III-3 fluorophore
6 | Pepper-4: base-modified Pepper, SEQ ID NO: 7, 2′-F modification in the stem-loop region (GGCCCCCCAAUCGUGGCGUGUCGGCCUGCUUCGGCAGGCACUGGCGCCGGGGGCC; 2'-fluoro at some stem-loop positions, underlined positions not recoverable, further chemistry not given here) |  | fluorescence activation of III-3 by base-modified Pepper: significantly activate the fluorescence of III-3 fluorophore
7 | C3U: F30-Pepper-1 mutant aptamer (NCUAAUCGUGGCGUGUCGNNNACUGGCGCCGN; RNA, backbone, methylation of C and the base at N not given here; Pepper aptamer mutant embedded in F30 scaffold) [Compound C3U] | 2016 | 
8 | C30A: F30-Pepper-1 mutant aptamer (NCCAAUCGUGGCGUGUCGNNNACUGGCGCAGN; RNA, backbone, methylation of C and the base at N not given here; Pepper aptamer mutant embedded in F30 scaffold) [Compound C30A] | 1596 | 
9 | C27U: F30-Pepper-1 mutant aptamer (NCCAAUCGUGGCGUGUCGNNNACUGGUGCCGN; Pepper mutant embedded in F30 scaffold, chemistry not given here, further chemistry not given here) [Compound C27U] | 3158 | 
10 | C2G/G31C/G10A/C30U: F30-Pepper-1 mutant aptamer (NGCAAUCGUAGCGUGUCGNNNACUGGCGCUCN; Pepper mutant embedded in F30 scaffold, chemistry not given here, further chemistry not given here) |  | Activation folds [2]: 2365 folds
11 | G28U: F30-Pepper-1 mutant aptamer (NCCAAUCGUGGCGUGUCGNNNACUGGCUCCGN; RNA, backbone and the base at N not given here; Pepper variant inserted in F30 scaffold RNA) [Compound G28U] | 873 | 
12 | A5C: F30-Pepper-1 mutant aptamer (NCCACUCGUGGCGUGUCGNNNACUGGCGCCGN; Pepper mutant embedded in F30 scaffold, chemistry not given here, further chemistry not given here) [Compound A5C] | 2628 | 
13 | C29G: F30-Pepper-1 mutant aptamer (NCCAAUCGUGGCGUGUCGNNNACUGGCGGCGN; Pepper mutant embedded in F30 scaffold, chemistry not given here, further chemistry not given here) [Compound C29G] | 2145 | 
14 | U6C: F30-Pepper-1 mutant aptamer (NCCAACCGUGGCGUGUCGNNNACUGGCGCCGN; RNA, backbone and the base at N not given here; Pepper variant inserted in F30 scaffold RNA) [Compound U6C] | 2088 | 
15 | U9A: F30-Pepper-1 mutant aptamer (NCCAAUCGAGGCGUGUCGNNNACUGGCGCCGN; RNA, backbone and the base at N not given here; Pepper variant inserted in F30 scaffold RNA) [Compound U9A] | 2124 | 
16 | A4C: F30-Pepper-1 mutant aptamer (NCCCAUCGUGGCGUGUCGNNNACUGGCGCCGN; Pepper mutant embedded in F30 scaffold, chemistry not given here, further chemistry not given here) [Compound A4C] | 2772 | 
17 | G11U: F30-Pepper-1 mutant aptamer (NCCAAUCGUGUCGUGUCGNNNACUGGCGCCGN; RNA, backbone, methylation of C and the base at N not given here; Pepper aptamer mutant embedded in F30 scaffold) [Compound G11U] | 1512 | 
18 | G18C: F30-Pepper-1 mutant aptamer (NCCAAUCGUGGCGUGUCCNNNACUGGCGCCGN; RNA, backbone, methylation of C and the base at N not given here; Pepper aptamer mutant embedded in F30 scaffold) [Compound G18C] | 1028 | 
19 | G11A: F30-Pepper-1 mutant aptamer (NCCAAUCGUGACGUGUCGNNNACUGGCGCCGN; RNA, backbone, methylation of C and the base at N not given here; Pepper aptamer mutant embedded in F30 scaffold) [Compound G11A] | 1526 | 
20 | C29U: F30-Pepper-1 mutant aptamer (NCCAAUCGUGGCGUGUCGNNNACUGGCGUCGN; Pepper mutant embedded in F30 scaffold, chemistry not given here, further chemistry not given here) [Compound C29U] | 1437 | 
21 | C7A: F30-Pepper-1 mutant aptamer (NCCAAUAGUGGCGUGUCGNNNACUGGCGCCGN; RNA, backbone, methylation of C and the base at N not given here; Pepper aptamer mutant embedded in F30 scaffold) [Compound C7A] | 1044 | 
22 | C2U/G31A/G10C/C30G: F30-Pepper-1 mutant aptamer (NUCAAUCGUCGCGUGUCGNNNACUGGCGCGAN; Pepper mutant embedded in F30 scaffold, chemistry not given here, further chemistry not given here) |  | Activation folds [2]: 2986 folds
23 | C2G/G31C/G10C/C30G/U6G/C27U: F30-Pepper-1 mutant aptamer (NGCAAGCGUCGCGUGUCGNNNACUGGUGCGCN; RNA, backbone, methylation of C and the base at N not given here; Pepper aptamer mutant embedded in F30 scaffold) |  | Activation folds [2]: 736 folds
24 | G13C: F30-Pepper-1 mutant aptamer (NCCAAUCGUGGCCUGUCGNNNACUGGCGCCGN; RNA, backbone, methylation of C and the base at N not given here; Pepper aptamer mutant embedded in F30 scaffold) [Compound G13C] | 1758 | 
25 | C2G/G31C/G10C/C30G: F30-Pepper-1 mutant aptamer (NGCAAUCGUCGCGUGUCGNNNACUGGCGCGCN; Pepper mutant embedded in F30 scaffold, chemistry not given here, further chemistry not given here) |  | Activation folds [2]: 2684 folds
26 | C27G: F30-Pepper-1 mutant aptamer (NCCAAUCGUGGCGUGUCGNNNACUGGGGCCGN; Pepper mutant embedded in F30 scaffold, chemistry not given here, further chemistry not given here) [Compound C27G] | 1875 | 
